According to patent publication US12448388B2, “PRMT5 inhibitors and uses thereof” (Gilead Sciences, Inc., priority 2023, dated 2025):

System: HCT116 MTAP-deleted cell lines
Assay: Cell viability assay (CellTiter-Glo, 7 days), HCT116 MTAP-deleted
Assay type: cell-based
Conditions: Homo sapiens, HCT-116; cell viability assay, HCT116 MTAP-deleted; class symbols; read-out: CC50
In short: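 Each PRMT5 inhibitor was tested as a dose response alongside tool compounds on the same plate. Incubation ran 7 days at 37 °C under 5% CO2, after which CellTiter-Glo luminescence was recorded and CC50 calculated.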

Compound	CC50 [nM]
C[C@H]1CC2Oc3cc(C(F)(F)F)ccc3C2N(C(=O)c2cc3c(cn2)nc(N)c2cncn23)C1 (stereo partly drawn) [Ff-386, (4-aminoimidazo[1,5-a]pyrido[3,4-e]pyrazin-8-yl)((3S)-3-methyl-7-(trifluoromethyl)-3,4,4a,9b-tetrahydrobenzofuro[3,2-b]pyridin-1(2H)-yl)methanone]	< 100
C=C(C)c1ccc2c(c1)OC[C@H]2N(C)C(=O)c1cc2c(cc1F)nc(N)c1cncn12 [Ff-478, (S)-4-amino-7-fluoro-N-methyl-N-(6-(prop-1-en-2-yl)-2,3-dihydrobenzofuran-3-yl)imidazo[1,5-a]quinoxaline-8-carboxamide]	< 100
CN(C(=O)c1cc2c(cc1F)nc(N)c1cncn12)[C@@H]1COc2cc(C3=CCOC3(C)C)ccc21 [Ff-485, (S)-4-amino-N-(6-(2,2-dimethyl-2,5-dihydrofuran-3-yl)-2,3-dihydrobenzofuran-3-yl)-7-fluoro-N-methylimidazo[1,5-a]quinoxaline-8-carboxamide]	< 100
Nc1nc2cc(F)c(C(=O)N(Cc3ccc(C(F)(F)F)cn3)c3cnn4ccccc34)cc2n2cncc12 [Ff-423, 4-amino-7-fluoro-N-pyrazolo[1,5-a]pyridin-3-yl-N-[[5-(trifluoromethyl)-2-pyridyl]methyl]imidazo[1,5-a]quinoxaline-8-carboxamide]	< 100
COc1ccc2c(c1)CO[C@H]1CCCN(C(=O)c3cc4c(cc3F)nc(N)c3cncn34)[C@@H]21 (single isomer, unassigned) [Ff-390]	< 100
[2H]C([2H])([2H])c1ncn2c1c(N)nc1cc(F)c(C(=O)N(C)[C@@H]3COc4cc(C(F)(F)F)ccc43)cc12 [Ff-497, (S)-4-amino-7-fluoro-N-methyl-3-(methyl-d3)-N-(6-(trifluoromethyl)-2,3-dihydrobenzofuran-3-yl)imidazo[1,5-a]quinoxaline-8-carboxamide]	< 100
Nc1nc2cc(F)c(C(=O)N3CC[C@H]4C[C@@H]3c3ccc(Cl)cc34)cc2n2cncc12 [Ff-603, (4-amino-7-fluoroimidazo[1,5-a]quinoxalin-8-yl)((1R,5S)-7-chloro-1,3,4,5-tetrahydro-2H-1,5-methanobenzo[c]azepin-2-yl)methanone]	100 to 1000
C[C@@H]1C[C@@H](N(C)C(=O)c2cc3c(cc2F)nc(N)c2cncn23)c2ccc(C(F)(F)F)cc21 [Ff-671, 4-amino-7-fluoro-N-methyl-N-((1R,3R)-3-methyl-5-(trifluoromethyl)-2,3-dihydro-1H-inden-1-yl)imidazo[1,5-a]quinoxaline-8-carboxamide]	< 100
Cc1ncn2c1c(N)nc1ccc(C(=O)N3C[C@@H](F)C[C@@H]4Oc5cc(OC(F)(F)F)ccc5[C@@H]43)cc12 [Fg-47, (4-amino-3-methylimidazo[1,5-a]quinoxalin-8-yl)((3S,4aS,9bS)-3-fluoro-7-(trifluoromethoxy)-3,4,4a,9b-tetrahydrobenzofuro[3,2-b]pyridin-1(2H)-yl)methanone]	< 100
Cc1ncc2c(N)nc3cnc(C(=O)N(C)[C@@H]4COc5cc(C67CC(C6)C7)ccc54)cc3n12 [Ff-466, (S)-4-amino-N-(6-(bicyclo[1.1.1]pentan-1-yl)-2,3-dihydrobenzofuran-3-yl)-N,1-dimethylimidazo[1,5-a]pyrido[3,4-e]pyrazine-8-carboxamide]	< 100
CN(C(=O)c1cc2c(cc1F)nc(N)c1cncn12)[C@@H]1COc2c(Br)cccc21 [Ff-455, (S)-4-amino-N-(7-bromo-2,3-dihydrobenzofuran-3-yl)-7-fluoro-N-methylimidazo[1,5-a]quinoxaline-8-carboxamide]	100 to 1000
CCN(C(=O)c1cc2c(cn1)nc(N)c1cncn12)[C@@H]1COc2cc(C(F)(F)F)ccc21 [Ff-604, (S)-4-amino-N-ethyl-N-(6-(trifluoromethyl)-2,3-dihydrobenzofuran-3-yl)imidazo[1,5-a]pyrido[3,4-e]pyrazine-8-carboxamide]	< 100
CN(Cc1ccc([C@@H]2C[C@H]2c2ccn(C(F)F)n2)cn1)C(=O)c1cc2c(cc1F)nc(N)c1cncn12 [Ff-428, 4-amino-N-[[5-[(1R,2R)-2-[1-(difluoromethyl)pyrazol-3-yl]cyclopropyl]-2-pyridyl]methyl]-7-fluoro-N-methyl-imidazo[1,5-a]quinoxaline-8-carboxamide]	100 to 1000
Cc1ncn2c1c(N)nc1cc(F)c(C(=O)N(Cc3ccc(C(F)(F)F)cn3)C3(C)CC3)cc12 [Ff-590, 4-amino-7-fluoro-3-methyl-N-(1-methylcyclopropyl)-N-((5-(trifluoromethyl)pyridin-2-yl)methyl)imidazo[1,5-a]quinoxaline-8-carboxamide]	< 100
CN(C(=O)c1cc2c(cc1F)nc(N)c1cncn12)[C@@H]1COc2cc(C3(C)CC3(F)F)ccc21 (stereo partly drawn) [Ff-575, 4-amino-N-((3S)-6-(2,2-difluoro-1-methylcyclopropyl)-2,3-dihydrobenzofuran-3-yl)-7-fluoro-N-methylimidazo[1,5-a]quinoxaline-8-carboxamide]	< 100
CN(C(=O)c1cc2c(cc1F)nc(N)c1cncn12)C1CCCc2cc(C(F)(F)F)ccc21 (centres unmarked) [Ff-430, 4-amino-7-fluoro-N-methyl-N-[6-(trifluoromethyl)tetralin-1-yl]imidazo[1,5-a]quinoxaline-8-carboxamide]	100 to 1000

Same assay, conditions: Homo sapiens, HCT-116; cell viability, HCT116 MTAP-deleted; class symbols; read-out: CC50

Compound	CC50 [nM]
Cc1ncc2c(N)nc3cnc(C(=O)N4CCC[C@@H]5Oc6c(ccc(C(F)(F)F)c6F)[C@@H]54)cc3n12 [Ff-107, (4-amino-1-methylimidazo[1,5-a]pyrido[3,4-e]pyrazin-8-yl)((4aS,9bS)-6-fluoro-7-(trifluoromethyl)-3,4,4a,9b-tetrahydrobenzofuro[3,2-b]pyridin-1(2H)-yl)methanone]	< 100
Nc1nc2cc(F)c(C(=O)N3CCCC[C@H]3c3ccc(C(F)(F)F)cc3F)cc2n2cncc12 (single isomer, unassigned) [Ff-152]	100 to 1000
Cn1c(CN(C(=O)c2cc3c(cc2F)nc(N)c2cncn23)N2CCCC2=O)nc2cc(C(F)(F)F)ccc21 [Fb-7, 4-amino-7-fluoro-N-((1-methyl-5-(trifluoromethyl)-1H-benzo[d]imidazol-2-yl)methyl)-N-(2-oxopyrrolidin-1-yl)imidazo[1,5-a]quinoxaline-8-carboxamide]	< 100
Nc1nc2cc(F)c(C(=O)N3CCCCC3c3ccc(C(F)(F)F)cc3F)cc2n2cncc12 (centres unmarked) [Ff-141, (4-amino-7-fluoroimidazo[1,5-a]quinoxalin-8-yl)(2-(2-fluoro-4-(trifluoromethyl)phenyl)piperidin-1-yl)methanone]	< 100
C[C@H]1CN(C(=O)c2cc3c(cc2F)nc(N)c2cncn23)[C@H]2c3ccc(-c4cnn(C(F)F)c4)cc3C[C@H]2O1 [Ff-96, (4-amino-7-fluoroimidazo[1,5-a]quinoxalin-8-yl)((2S,4aS,9aR)-7-(1-(difluoromethyl)-1H-pyrazol-4-yl)-2-methyl-2,3,9,9a-tetrahydroindeno[2,1-b][1,4]oxazin-4(4aH)-yl)methanone]	< 100
CC(=O)N(C)N(Cc1ccn(-c2ccc(F)cc2F)n1)C(=O)c1cc2c(cc1F)nc(N)c1cncn12 [Fb-16, N′-acetyl-4-amino-N-((1-(2,4-difluorophenyl)-1H-pyrazol-3-yl)methyl)-7-fluoro-N′-methylimidazo[1,5-a]quinoxaline-8-carbohydrazide]	100 to 1000
Nc1nc2cc(F)c(C(=O)N(Cc3ccc(-c4cnn(C(F)F)c4)cn3)C34CC(C3)C4)cc2n2cncc12 [Ff-212, 4-amino-N-(bicyclo[1.1.1]pentan-1-yl)-N-((5-(1-(difluoromethyl)-1H-pyrazol-4-yl)pyridin-2-yl)methyl)-7-fluoroimidazo[1,5-a]quinoxaline-8-carboxamide]	< 100
Nc1nc2cc(F)c(C(=O)N3CC4CC4(c4ccc(C(F)(F)F)cc4)C3)cc2n2cncc12 (centres unmarked) [Ff-3, (4-amino-7-fluoroimidazo[1,5-a]quinoxalin-8-yl)(1-(4-(trifluoromethyl)phenyl)-3-azabicyclo[3.1.0]hexan-3-yl)methanone]	> 1000
Nc1nc2cc(F)c(C(=O)N3[C@@H](c4ccc(C(F)(F)F)cn4)CC[C@@H]4C[C@@H]43)cc2n2cncc12 (racemic) [Ff-293, Rac-(4-amino-7-fluoroimidazo[1,5-a]quinoxalin-8-yl)((1S,3R,6R)-3-(5-(trifluoromethyl)pyridin-2-yl)-2-azabicyclo[4.1.0]heptan-2-yl)methanone]	100 to 1000
Nc1nc2cc(F)c(C(=O)N3CCN(C4COC4)CC3c3ccc(C(F)(F)F)cn3)cc2n2cncc12 (centres unmarked) [Ff-140, (4-amino-7-fluoroimidazo[1,5-a]quinoxalin-8-yl)(4-(oxetan-3-yl)-2-(5-(trifluoromethyl)pyridin-2-yl)piperazin-1-yl)methanone]	100 to 1000
CN(C(=O)c1ccc2nc(N)c3cncn3c2c1)[C@@H]1COc2c1ccc(C(F)(F)F)c2F [Ff-356, (S)-4-amino-N-(7-fluoro-6-(trifluoromethyl)-2,3-dihydrobenzofuran-3-yl)-N-methylimidazo[1,5-a]quinoxaline-8-carboxamide]	< 100
Cc1ncn2c1c(N)nc1cnc(C(=O)N3CCC[C@@H]4Oc5c(ccc(C(F)(F)F)c5F)[C@@H]43)cc12 [Ff-119, (4-amino-3-methylimidazo[1,5-a]pyrido[3,4-e]pyrazin-8-yl)((4aS,9bS)-6-fluoro-7-(trifluoromethyl)-3,4,4a,9b-tetrahydrobenzofuro[3,2-b]pyridin-1(2H)-yl)methanone]	< 100
Nc1nc2cnc(C(=O)N3CCC[C@@H]4Oc5cc(OC(F)(F)F)c(F)cc5[C@@H]43)cc2n2cncc12 (racemic) [Ff-338, Rac-(4-aminoimidazo[1,5-a]pyrido[3,4-e]pyrazin-8-yl)((4aS,9bS)-8-fluoro-7-(trifluoromethoxy)-3,4,4a,9b-tetrahydrobenzofuro[3,2-b]pyridin-1(2H)-yl)methanone]	< 100
